Laboratory results reported in patent US20250304568A1, “PYRIMIDINES FOR DEGRADING BRUTON'S TYROSINE KINASE” (AbbVie Inc., priority 2022, published 2025).

What was measured:
[1] = test system: TCL1-driven CLL bearing BTK^C481S mutation; assay: TCL1-driven CLL bearing BTK^C481S mutation in C57BL/6 mice, circulating leukemia burden; type: in vivo
Description: Eμ-TCL1 CLL transgenic mice (Crogen Pharmaceuticals LLC) were crossed with […] knock-in mice (AbbVie) to generate Eμ-TCL1 transgenic mice carrying the […] mutation. The leukemic splenocytes from these BTK^C481S Eμ-TCL1 transgenic mice (Passage 1) were transplanted intravenously into C57BL/6 mice, leading to CLL development in the peripheral blood and spleen. When circulating CLL burden (CD5+CD19+ cells as described below) in the recipient mice reached over 90%, their splenocytes (Passage 2) containing high CLL burden were cryopreserved and used for CLL efficacy studies. […]
To determine the absolute/total leukocyte numbers, complete blood counts were determined for each mouse using the Genesis™ veterinary hematology analyzer (Oxford Science Inc.).
Cells isolated from murine peripheral blood mononuclear cells (PMBCs) were collected to determine antigen expression. […] Cells were gated on CD45+, and thereafter the percentage of cells that were CD5+CD19+ from that subset was calculated. […]
Whole blood was collected weekly post tumor implantation via submandibular cheek bleeding. Circulating leukemic burden was calculated by multiplying absolute/total leukocyte count with the percentage of the leukocytes have the immunophenotype CD19^+CD5^+. […]

[2] = target: Human BTK enzyme, wild-type (Homo sapiens (Human), UniProt Q06187); assay: BTK screening: Btk kinase activity, electrophoretic mobility shift assay (MSA); type: biochemical; conditions: 50 μM ATP, 0.5 nM BTK enzyme, 15 minutes pre-incubation
Procedure: Btk kinase activity was measured in vitro using an electrophoretic mobility shift assay (MSA). The ability of Btk to phosphorylate a fluorescent peptide substrate (FAM-GEEPLYWSFPAKKK-NH2) was measured. The kinase reactions were assembled in a total volume of 25 μL per well in 384 well plates. The following was added to each well: compound buffer (or control); enzyme buffer; and substrate buffer, as further described below. […]
The terminated reactions were analyzed using a 12 channel LABCHIP® 3000 microfluidic detection instrument (available from Caliper Life Sciences, Waltham, MA). […] As substrate and product peptides were separated, two peaks of fluorescence were observed. Change in the relative fluorescence intensity of the substrate and product peaks was the parameter measured, reflecting enzyme activity. […] Capillary electrophoregrams (RDA acquisition files) were analyzed using HTS Well Analyzer software (available from Caliper Life Sciences, Waltham, MA).
Activity in each sample was determined as the product to sum ratio (PSR): P/(S+P), where P was the peak height of the product peptide and S was the peak height of the substrate peptide. For each compound, enzyme activity was measured at various concentrations (12 concentrations of compound spaced by 3× dilution intervals). […]

[3] = target: His-tagged Cereblon/DDB1 complex (Homo sapiens (Human), UniProt Q96SW2); assay: Cereblon binding assay (AlphaLISA Human Cereblon Binding Kit, competition); conditions: 10 μM top dose, biotinylated ligand competition; read-out: CRBN IC50
Procedure: Cereblon binding was measured in vitro using an AlphaLISA® Human Cereblon Binding Kit (PerkinElmer, Waltham, MA) according to the manufacturer's protocol (“Alpha” refers to Amplified Luminescent Proximity Homogeneous Assay). In this assay, donor beads and acceptor beads come into proximity through ligand binding to CRBN protein. Excitation of the donor beads provokes the release of singlet oxygen that triggers a cascade of energy transfer reactions to the acceptor beads, resulting in a sharp peak in light emission at 615 nm.
Specifically, nickel chelate acceptor beads (PerkinElmer AL108M) were used to capture a 6×HIS-tagged CRBN protein, and streptavidin-coated donor beads (PerkinElmer 6760002) were used to capture 50 nM biotinylated ligand. […]
Detection: 10 μL detection reagents were added in low light conditions containing nickel chelate acceptor beads and streptavidin donor beads (Perkin Elmer 6760002), resulting in a final concentration 20 μg/ml. Plates were incubated 1 hour and read on a PerkinElmer™ Envision™ plate reader (680 nm excitation and […] emission settings). The IC50 of each compound was determined by calculating percent inhibition from no drug and no protein controls, and the Ki of each compound was calculated using the Cheng-Prusoff transformation. From the Ki, the ICs50 values were determined. […]

IC50 [2] [nM] | IC50 [3] [nM] | SMILES | CLL burden control (no increase from the initial tumor burden) ([1]; Dosage 3 and Dosage 4, once daily (QD) for 19 days) | circulating leukemia burden (CD19+CD5+ CLL cells per μL) ([1]; once daily (QD) for 19 days, Dosage 1 to 4, dose-dependent manner, FIG. 1)
– | – | Cc1cc(-c2cc(Nc3ccc(N4CCN(CCc5ccc(N6CCC(=O)NC6=O)cc5)C[C@@H]4C)cn3)ncn2)ccc1[C@@H](C)NC(=O)c1nc(C(C)(C)C)no1 [Example 1, 3-tert-butyl-N-[(1R)-1-{4-[6-({5-[(2S)-4-{2-[4-(2,4-dioxo-1,3-diazinan-1-yl)phenyl]ethyl}-2-methylpiperazin-1-yl]pyridin-2-yl}amino)pyrimidin-4-yl]-2-methylphenyl}ethyl]-1,2,4-oxadiazole-5-carboxamide] | Complete CLL burden control | controlled circulating leukemia burden
0.0973 | 2150 | Cc1c([C@@H](C)NC(=O)c2nc(C(C)(C)C)no2)ccc(-c2cc(Nc3ccc(N4CCN(CCc5ccc(N6CCC(=O)NC6=O)cc5)CC4)cn3)ncn2)c1F [Example 11, 3-tert-butyl-N-{(1R)-1-[4-(6-{[5-(4-{2-[4-(2,4-dioxo-1,3-diazinan-1-yl)phenyl]ethyl}piperazin-1-yl)pyridin-2-yl]amino}pyrimidin-4-yl)-3-fluoro-2-methylphenyl]ethyl}-1,2,4-oxadiazole-5-carboxamide] | – | –
0.106 | 6310 | Cc1c([C@@H](C)NC(=O)c2nc(C(C)(C)C)no2)ccc(-c2cc(Nc3ccc(N4CCN(CCc5ccc(N6CCC(=O)NC6=O)cc5)C[C@@H]4C)cn3)ncn2)c1F [Example 10, 3-tert-butyl-N-[(1R)-1-{4-[6-({5-[(2S)-4-{2-[4-(2,4-dioxo-1,3-diazinan-1-yl)phenyl]ethyl}-2-methylpiperazin-1-yl]pyridin-2-yl}amino)pyrimidin-4-yl]-3-fluoro-2-methylphenyl}ethyl]-1,2,4-oxadiazole-5-carboxamide] | – | –
